From the supplement of paper PMC10290057 come the findings set out here.

Assay [1] concerns HCT116. As to the kind of experiment: efficacy (fitted maximal change in viability relative to DMSO control); higher = less cytotoxic (negative = loss of viability). The conditions noted are these: 48 h.
In assay [2] the test system is HCT116. As to the kind of experiment: AC50 cell viability (CellTiter-Glo); higher = less potent. The conditions noted are these: 48 h. (In general: Cellular ATP, detected with luciferase, serves as a proxy for viable cell number.)

Counter-ions that a name gives are not always drawn.
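Throughout, for AC50 cell viability (CellTiter-Glo): HCT116 colorectal carcinoma cells screened at five concentrations per compound, luminescent viability scaled between DMSO wells and empty wells on each plate, curves fitted per compound.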
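Throughout, for efficacy (fitted maximal change in viability relative to DMSO control): Luminescence-based viability readout, five doses per compound, normalized against on-plate DMSO and empty-well controls, followed by dose-response curve fitting for every drug.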

For the compound `CCC[C@H](N[C@H]1CCc2cc(F)cc(F)c2C1)C(=O)Nc1cn(C(C)(C)CNCC(C)(C)C)cn1` [Nirogacestat], the efficacy in assay [1] was -90.3%. In assay [2], this compound showed an AC50 cell viability of 20.9 µM.

In the case of `CC(=O)Oc1ccccc1C(=O)Nc1ncc([N+](=O)[O-])s1` [Nitazoxanide], the efficacy in assay [1] is -80.3%. Besides, the AC50 cell viability in assay [2] stood at 23.5 µM.

Regarding `O=[N+]([O-])c1ccc(O)c2ncccc12` [Nitroxoline], the efficacy in assay [1] was -96.2%. The AC50 cell viability in assay [2] worked out at 10.5 µM.

Take `COC(=O)Nc1nc2cc(C(=O)c3cccs3)ccc2[nH]1` [Nocodazole]: the efficacy in assay [1] was -65.7%. This compound displayed an AC50 cell viability in assay [2] of 0.166 µM.

As to `COc1ccc2c(c1OC)C(=O)O[C@H]2[C@H]1c2c(cc3c(c2OC)OCO3)CCN1C` [Noscapine], the efficacy in assay [1] is -55.1%. The compound further came in with an AC50 cell viability in assay [2] of 14.8 µM.

With `COC1=CC=C(C(=C1)OC(C)C)C/2=N/[C@@H]([C@@H](N2C(=O)N3CCNC(=O)C3)C4=CC=C(Cl)C=C4)C5=CC=C(Cl)C=C5` [Nutlin-3], in assay [1], the efficacy is -98.3%. Further, in assay [2], the AC50 cell viability is 23.5 µM.

In the case of `NC1CCC(N[C@@H]2C[C@H]2c2ccccc2)CC1` (some centres not stated) [ORY-1001], the efficacy in assay [1] is -36%. The compound further registered an AC50 cell viability in assay [2] of 16.6 µM.

As for `COc1cccc2cc(-c3nc([C@H]4CC[C@H](C(=O)O)CC4)n4ncnc(N)c34)[nH]c12` [OSI-027], in assay [1], the efficacy is -94.5%. In assay [2], this compound showed an AC50 cell viability of 11.8 µM.

Take `C#Cc1cccc(Nc2ncnc3cc(OCCOC)c(OCCO)cc23)c1` [OSI-420]: the efficacy in assay [1] is -76.6%. The AC50 cell viability in assay [2] amounted to 6.61 µM.

With `NC(=O)c1c(OCc2c(F)cc(Br)cc2F)nsc1NC(=O)NCCCCN1CCCC1` [OSI-632], in assay [1], the efficacy is -100%. Further, in assay [2], the AC50 cell viability is 23.5 µM.

For `O=C(Nc1ccc(OC(F)(F)F)cc1)c1sccc1NCc1ccnc2ccccc12` [OSI-930], the efficacy in assay [1] is -77.4%. Further, the AC50 cell viability in assay [2] turned out to be 10.5 µM.

For `CNC(=O)CCc1cc(-c2ccc(-c3ccc(C(F)(F)F)cc3)cc2)n(-c2ccc(N3CCNCC3)cc2)n1` [OSU-T315], in assay [1], the efficacy was -90.4%. The same compound displayed an AC50 cell viability in assay [2] of 6.61 µM.

Take `Cc1cc(O)c(-c2ccc([C@@H](C)CN(C)C)cc2)c2c1[nH]c(=O)c1sccc12` [OTS964]: the efficacy in assay [1] is -63.1%. The compound further returned an AC50 cell viability in assay [2] of 0.0295 µM.

Consider `CC(=O)c1cnc2ccc(-c3cc(Cl)c(O)c(Cl)c3)nc2c1N[C@H]1CC[C@H](CN(C)C)CC1` [OTS-167], for which the efficacy in assay [1] is -70.5%. For the same compound, the AC50 cell viability in assay [2] was 0.0539 µM.

In the case of `Nc1nccn2c1c(-c1cc3cccc(Cl)c3[nH]1)nc2[C@H]1CC[C@H](C(=O)O)CC1` [OXA-01], the efficacy in assay [1] is -65.8%. For the same compound, the AC50 cell viability in assay [2] was 9.34 µM.

For `COC1=CC(c2cc3ccccc3[nH]2)=N/C1=C/c1[nH]c(C)cc1C` [Obatoclax], the efficacy in assay [1] is -90%. Also, the AC50 cell viability in assay [2] was 1.66 µM.

Consider `CC[C@H]1/C=C\C=C/C[C@@H](C)[C@H](O)[C@@](C)(O)C(=O)[C@@H](C)[C@H](O)[C@@H](C)C(=O)[C@@H](C)[C@H](O)[C@@H](C)/C=C/C(=O)O[C@@H]2[C@H](C)[C@H](CC1)O[C@]1(CC[C@H](C)[C@H](C[C@@H](C)O)O1)[C@H]2C` [Oligomycin A], for which, in assay [1], the efficacy was -112%. This compound also had an AC50 cell viability in assay [2] of 16.6 µM.

Consider `C=CC(=O)Nc1cccc(Oc2nc(Nc3ccc(N4CCN(C)CC4)cc3)nc3ccsc23)c1` [Olmutinib], for which the efficacy in assay [1] is -98.2%. Further, in assay [2], the AC50 cell viability came out at 8.33 µM.

`COC(=O)C[C@](O)(CCCC(C)(C)O)C(=O)O[C@@H]1C(OC)=CC23CCCN2CCc2cc4c(cc2[C@H]13)OCO4` (some centres not stated) [Omacetaxine mepesuccinate]: the efficacy in assay [1] was -68.3%. This compound yielded an AC50 cell viability in assay [2] of 0.0235 µM.

`CC1(C)CC[C@@]2(CC[C@]3(C)[C@@H]([C@@H]2C1)C(=O)\C=C\4[C@@]3(C)CC[C@H]5C(C)(C)C(=O)\C(=C/[C@]45C)C#N)NC(=O)C(C)(F)F` [Omaveloxolone]: the efficacy in assay [1] is -91.5%. In assay [2], this compound yielded an AC50 cell viability of 5.9 µM.

Take `COc1ccc(/C=C\c2cc(OC)c(OC)c(OC)c2)cc1NC(=O)[C@H](N)CO` [Ombrabulin]: the efficacy in assay [1] was -62.9%. Also, the AC50 cell viability in assay [2] was determined as 0.148 µM.

Regarding `CC(C)c1cc(C(=O)N2Cc3ccc(CN4CCN(C)CC4)cc3C2)c(O)cc1O` [Onalespib], the efficacy in assay [1] was -54.3%. The compound further had an AC50 cell viability in assay [2] of 0.118 µM.

Turning to `COC[C@H](NC(=O)c1cnc(C)s1)C(=O)N[C@@H](COC)C(=O)N[C@@H](Cc1ccccc1)C(=O)[C@@]1(C)CO1` [Oprozomib], the efficacy in assay [1] was -88.1%. In assay [2], this compound displayed an AC50 cell viability of 0.0742 µM.

With `Cc1[nH]c(/C=C2\C(=O)Nc3ccccc32)c(C)c1CCC(=O)O` [Orantinib], the efficacy in assay [1] was -49.3%. Besides, the AC50 cell viability in assay [2] worked out at 23.5 µM.

For the compound `C=C1C(=O)[C@@]23C(CC[C@@H]1[C@H]2O)[C@@]12CO[C@]3(O)[C@@H](O)[C@@H]1C(C)(C)CC[C@@H]2O` (some centres not stated) [Oridonin], in assay [1], the efficacy is -98.8%. In addition, the AC50 cell viability in assay [2] was 13.2 µM.

As to `C=CC(=O)Nc1cc(Nc2nccc(-c3cn(C)c4ccccc34)n2)c(OC)cc1N(C)CCN(C)C` [Osimertinib mesylate], the efficacy in assay [1] was -103%. Further, in assay [2], the AC50 cell viability was 8.33 µM.

As for `C[C@](O)(COc1ccc(C#N)cc1)C(=O)Nc1ccc(C#N)c(C(F)(F)F)c1` [Ostarine], the efficacy in assay [1] was -91.5%. This compound also showed an AC50 cell viability in assay [2] of 20.9 µM.

As to `CCNC1(C(N)=O)CCN(c2ncnc3c2nc(-c2ccccc2Cl)n3-c2ccc(Cl)cc2)CC1` [Otenabant], the efficacy in assay [1] was -97.3%. The compound also registered an AC50 cell viability in assay [2] of 23.5 µM.

Turning to `O=C1[O][Pt]2([NH]C3CCCCC3[NH]2)[O]C1=O` (configuration not stated) [Oxaliplatin], the efficacy in assay [1] is -42.2%. For the same compound, in assay [2], the AC50 cell viability amounted to 9.11 µM.

`O=C(/C=C/C#Cc1cccc(N[S+](=O)([O-])c2ccccc2)c1)NO` [Oxamflatin]: in assay [1], the efficacy was -99.5%. For the same compound, the AC50 cell viability in assay [2] was 1.02 µM.

With `COC(=O)Nc1nc2cc([S+]([O-])c3ccccc3)ccc2[nH]1` (configuration not stated) [Oxfendazole], the efficacy in assay [1] is -47.9%. Moreover, in assay [2], the AC50 cell viability amounted to 6.61 µM.

Turning to `CCCOc1ccc2[nH]c(NC(=O)OC)nc2c1` [Oxibendazole], in assay [1], the efficacy is -64.9%. In assay [2], this compound yielded an AC50 cell viability of 0.295 µM.

Turning to `O=C(c1ccc(Nc2nc(C3CC3)cn3c(-c4cn[nH]c4)cnc23)c(F)c1)N1CCOCC1` [P21d hydrochloride], in assay [1], the efficacy is -86.2%. For the same compound, the AC50 cell viability in assay [2] came to 14.8 µM.

Take `C=CCc1cccc(/C=N/NC(=O)CN2CCN(Cc3ccccc3)CC2)c1O` [PAC-1]: the efficacy in assay [1] was -94.4%. The compound also yielded an AC50 cell viability in assay [2] of 7.42 µM.

Consider `COc1cccc2c1CCCC2CCCN1CCN(C2CCCCC2)CC1` (configuration not stated) [PB-28], for which the efficacy in assay [1] was -91.3%. Further, the AC50 cell viability in assay [2] came out at 16.6 µM.

For the compound `COc1ccc(-c2c(-c3ccc(O)cc3O)n[nH]c2C)cc1` [PDHK RIKEN], the efficacy in assay [1] is -47.1%. Besides, in assay [2], the AC50 cell viability was 20.9 µM.
